The test system of one assay is B. Anthracis. Nature of the assay: microbe, parasite or virus in culture. The class given is cell-based. The conditions noted are these: for inhibition at 10 µM / inhibition at 30 µM / inhibition at 3 µM: Bacillus anthracis; for inhibition at 10 µM: read-out: B. Anthracis 10 μM (growth inhibition); for inhibition at 30 µM: read-out: B. Anthracis 30 μM (growth inhibition); for inhibition at 3 µM: read-out: B. Anthracis 3 μM (growth inhibition).

Another assay concerns S. MRSA. Nature of the assay: microbe, parasite or virus in culture. The class given is cell-based. The conditions noted are these: for inhibition at 10 µM / inhibition at 30 µM / inhibition at 3 µM: Staphylococcus aureus, MRSA; for inhibition at 10 µM: read-out: S. MRSA 10 μM (growth inhibition); for inhibition at 30 µM: read-out: S. MRSA 30 μM (growth inhibition); for inhibition at 3 µM: read-out: S. MRSA 3 μM (growth inhibition).

Consider `O=C1NC(=S)NC(=O)C1=Cc1ccc(Br)s1` [Cmpd 1], for which, in the assay on B. Anthracis, the inhibition (as a rule, the relative decrease from the control value, in per cent) at 10 µM was -12.4% and the inhibition at 30 µM amounted to 8.74%. Moreover, in the assay on S. MRSA, the inhibition at 10 µM came to 6.62% and the inhibition at 30 µM turned out to be 22.1%.

For `O=C1NC(=S)S/C1=C/c1ccc(-c2ccc3c(c2)C(=O)NC3=O)o1` [Cmpd 3], in the assay with B. Anthracis, the inhibition at 10 µM was found to be 13.7% and the inhibition at 30 µM stood at 87.5%. Besides, in the assay on S. MRSA, the inhibition at 10 µM was -0.59% and the inhibition at 30 µM is 61.2%.

On to `O=C(O)CCCCCN1C(=O)/C(=C2/C(=O)Nc3ccc(Br)cc32)SC1=S` [Cmpd 4], for which, in the assay on B. Anthracis, the inhibition at 10 µM is 52.3% and the inhibition at 30 µM was found to be 91.2%. For the same molecule, in the assay with S. MRSA, the inhibition at 10 µM was 41.6% and the inhibition at 30 µM was 69.4%.

With `CC(C)C(C(=O)O)N1C(=O)/C(=C2/C(=O)Nc3ccccc32)SC1=S` (stereo not shown) [Cmpd 5], in the assay on B. Anthracis, the “B. Anthracis 10 μM (growth inhibition)” value is listed as −1.33 and the inhibition at 30 µM was determined as 11.2%. In the assay on S. MRSA, the inhibition at 10 µM came to 15.9% and the inhibition at 30 µM came to 40.6%.

On to `O=C1Nc2ccccc2/C1=C1/SC(=S)N(C(Cc2ccccc2)C(=O)O)C1=O` (stereo not shown) [Cmpd 6], for which, in the assay with B. Anthracis, the inhibition at 10 µM was 19.6% and the inhibition at 30 µM amounted to 92.6%. Also, in the assay with S. MRSA, the inhibition at 10 µM stood at 45.7% and the inhibition at 30 µM is 47.8%.

As to `COc1ccc(-c2nnc(-c3ccccc3)o2)cc1S(=O)(=O)Nc1cc2c(cc1C#N)OCO2` [Cmpd 7], in the assay on B. Anthracis, the inhibition at 10 µM stood at 19.6% and the inhibition at 30 µM stood at 74.9%. Moreover, in the assay with S. MRSA, the inhibition at 10 µM was -7.79% and the inhibition at 30 µM is -1.62%.

As for `COc1ccc(-c2nc(N3CCOCC3)c3sc(=O)n(-c4ccccc4)c3n2)cc1OC` [Cmpd 8], the inhibition at 10 µM was 5.32% in the assay on B. Anthracis and -8.82% in the assay on S. MRSA. Also, the inhibition at 30 µM in the assay with B. Anthracis was 35.5%; with S. MRSA it was 1.47%.

Consider `O=C1NC(=S)NC(=O)C1=Cc1ccc(-c2ccc(Br)c(Cl)c2)o1` [Cmpd 9], for which, in the assay on B. Anthracis, the inhibition at 10 µM is 28% and the inhibition at 30 µM turned out to be 88.4%. In the assay on S. MRSA, the inhibition at 10 µM amounted to 19% and the inhibition at 30 µM was -4.22%.

Regarding `O=C1NC(=O)N(Cc2ccc(F)cc2)C(=O)/C1=C/c1ccc(Br)s1` [Cmpd 10], in the assay on B. Anthracis, the inhibition at 10 µM was found to be 10.3% and the inhibition at 30 µM amounted to 68.2%. Besides, in the assay on S. MRSA, the inhibition at 10 µM is 14.8% and the inhibition at 30 µM came out at 62.2%.

As to `COc1ccc(N2C(=O)/C(=C/c3ccc(Br)s3)C(=O)NC2=S)cc1` [Cmpd 11], in the assay on B. Anthracis, the inhibition at 10 µM stood at 16.2% and the inhibition at 30 µM worked out at 47.3%. In the assay on S. MRSA, the inhibition at 10 µM was determined as 14.8% and the inhibition at 30 µM came to 42.6%.

As to `O=C1Nc2ccc(Br)cc2/C1=C1/SC(=S)N(C(Cc2ccccc2)C(=O)O)C1=O` (stereo not shown) [Cmpd 13], in the assay on B. Anthracis, the “B. Anthracis 10 μM (growth inhibition)” value is reported as 10.27 and the inhibition at 30 µM was 90.1%. Also, in the assay on S. MRSA, the “S. MRSA 10 μM (growth inhibition)” value is −0.58 and the “S. MRSA 30 μM (growth inhibition)” value is on record as 30.29.

Take `O=C1NC(=S)NC(=O)C1=Cc1ccc(-c2cccc(Cl)c2)o1` [Cmpd 14]: the results for the inhibition at 10 µM with B. Anthracis and in the assay with S. MRSA were 3.62% and 7.65%, respectively. Besides, the inhibition at 30 µM amounted to 27.2% in the assay on B. Anthracis and 47.8% in the assay with S. MRSA.

For the molecule `O=C1NC(=S)NC(=O)C1=Cc1ccc(-c2ccc(Cl)cc2)o1` [Cmpd 15], the inhibition at 10 µM in the assay on B. Anthracis is 3.62%; in the assay with S. MRSA, 20%. Moreover, the results for the inhibition at 30 µM in the assay with B. Anthracis and in the assay with S. MRSA were 42.2% and 63.2%, respectively.

As to `O=C1NC(=S)NC(=O)C1=Cc1ccc(Br)cc1` [Cmpd 16], in the assay on B. Anthracis, the inhibition at 3 µM is 0%, the inhibition at 10 µM came out at 0% and the inhibition at 30 µM was found to be 0%. Moreover, in the assay with S. MRSA, the inhibition at 3 µM is 13.6%, the inhibition at 10 µM was 12% and the inhibition at 30 µM is 8.76%.

Take `CC(C)C(C(=O)O)N1C(=O)/C(=C2/C(=O)Nc3ccccc32)SC1=S` (stereo not shown) [Cmpd 17]: in the assay with B. Anthracis, the “B. Anthracis 10 μM (growth inhibition)” value is given as −2.28 and the “B. Anthracis 30 μM (growth inhibition)” value was determined as 7.03. Moreover, in the assay with S. MRSA, the “S. MRSA 10 μM (growth inhibition)” value is given as 14.85 and the “S. MRSA 30 μM (growth inhibition)” value is 46.76.

As to `O=C1NC(=O)C(=Cc2ccc(Br)s2)C(=O)N1` [Cmpd 18], in the assay on B. Anthracis, the inhibition at 3 µM stood at 0%, the inhibition at 10 µM is 0% and the inhibition at 30 µM was 0%. In the assay with S. MRSA, the inhibition at 3 µM was 13.6%, the inhibition at 10 µM amounted to 15.2% and the inhibition at 30 µM came to 18.4%.

Regarding `O=C1NC(=O)C(=Cc2ccc(Br)o2)C(=O)N1` [Cmpd 19], in the assay on B. Anthracis, the inhibition at 3 µM was determined as 3.33%, the inhibition at 10 µM came to 10.7% and the inhibition at 30 µM was 12.9%. In the assay on S. MRSA, the inhibition at 3 µM is -1.4%, the inhibition at 10 µM worked out at 2% and the inhibition at 30 µM stood at 12.6%.

Regarding `O=C1NC(=S)NC(=O)C1=Cc1ccc(-c2ccc(F)cc2)o1` [Cmpd 20], the inhibition at 10 µM was 17.1% in the assay with B. Anthracis and 25.1% in the assay with S. MRSA. The inhibition at 30 µM was found to be 28.7% in the assay on B. Anthracis and 56% with S. MRSA.

In the case of `O=C(O)CC(C(=O)O)N1C(=O)/C(=C2/C(=O)Nc3ccc(Br)cc32)SC1=S` (stereo not shown) [Cmpd 21], in the assay on B. Anthracis, the inhibition at 3 µM amounted to 15.8%, the inhibition at 10 µM worked out at 13.1% and the inhibition at 30 µM came out at 14.2%. Besides, in the assay on S. MRSA, the inhibition at 3 µM was -6.99%, the inhibition at 10 µM was -2.11% and the inhibition at 30 µM was -2.11%.

As for `O=C1Nc2ccc(Br)cc2/C1=C1/SC(=S)N(C(Cc2ccccc2)C(=O)O)C1=O` (stereo not shown) [Cmpd 22], in the assay with B. Anthracis, the “B. Anthracis 10 μM (growth inhibition)” value came to 83.27 and the “B. Anthracis 30 μM (growth inhibition)” value is 90.11. Moreover, in the assay with S. MRSA, the “S. MRSA 10 μM (growth inhibition)” value came out at 10.74 and the “S. MRSA 30 μM (growth inhibition)” value came to 86.76.

For `CN1C(=O)C(Cc2ccc(-c3ccc(Cl)c(Cl)c3)o2)C(=O)N(C)C1=O` [Cmpd 23], in the assay with B. Anthracis, the inhibition at 3 µM was -8.49%, the inhibition at 10 µM amounted to 1.54% and the inhibition at 30 µM was determined as 10.7%. In the assay with S. MRSA, the inhibition at 3 µM was -8.09%, the inhibition at 10 µM was -7.35% and the inhibition at 30 µM stood at 0%.

For the molecule `CCc1ccccc1N1C(=O)/C(=C/c2ccc(-c3cc(C(=O)O)ccc3Cl)o2)C(=O)NC1=S` [Cmpd 24], in the assay on B. Anthracis, the inhibition at 3 µM is -10.8%, the inhibition at 10 µM was -4.63% and the inhibition at 30 µM is -10.8%. In the assay with S. MRSA, the inhibition at 3 µM is -2.94%, the inhibition at 10 µM was 2.2% and the inhibition at 30 µM is -5.88%.

With `O=C1NC(=S)N(c2cccc(Cl)c2)C(=O)/C1=C/c1ccc(-c2cc(C(=O)O)ccc2Cl)o1` [Cmpd 25], in the assay with B. Anthracis, the inhibition at 3 µM was -10.8%, the inhibition at 10 µM was -3.09% and the inhibition at 30 µM is -3.09%. Moreover, in the assay with S. MRSA, the inhibition at 3 µM was -2.21%, the inhibition at 10 µM is -4.41% and the inhibition at 30 µM is -5.15%.

As for `O=C1NC(=S)N(c2ccc(Cl)cc2)C(=O)/C1=C/c1ccc(-c2ccccc2C(=O)O)o1` [Cmpd 26], in the assay on B. Anthracis, the inhibition at 3 µM amounted to 2.32%, the inhibition at 10 µM was 97% and the inhibition at 30 µM stood at 100%. Moreover, in the assay on S. MRSA, the inhibition at 3 µM was 1.47%, the inhibition at 10 µM worked out at 16.1% and the inhibition at 30 µM turned out to be 92.4%.

The record behind these values is US20140073639A1 (priority 2012, published 2014).
